Reference: patent US20150344457A1, “METHODS OF INHIBITING PRMT5” (EPIZYME, INC., priority 2012, published 2015)
pEC50, pIC50: −log10 of the molar value. Read-outs that look alike come from different tables or passages of the source.

How the values were obtained:
Z-138 cells [1] = test: Z-138 Methylation Assay (In Cell Western for symmetric di-methyl arginine and DNA content); type: cell-based; settings: Homo sapiens
From the text: Z-138 suspension cells were purchased from ATCC (American Type Culture Collection, Manassas, Va.). RPMI/Glutamax medium, penicillin-streptomycin, heat inactivated fetal bovine serum, and D-PBS were purchased from Life Technologies, Grand Island, N.Y., USA. Odyssey blocking buffer, 800CW goat anti-rabbit IgG (H+L) antibody, and Licor Odyssey infrared scanner were purchased from Licor Biosciences, Lincoln, Nebr., USA. Symmetric di-methyl arginine antibody was purchased from EMD Millipore, Billerica, Mass., USA. 16% Paraformaldehyde was purchased from Electron Microscopy Sciences, Hatfield, Pa., USA.
Z-138 suspension cells were maintained in growth medium (RPMI 1640 supplemented with 10% v/v heat inactivated fetal bovine serum and 100 units/mL penicillin-streptomycin) and cultured at 37° C. under 5% CO2.
Cell Treatment, in Cell Western (ICW) for Detection of Symmetric Di-Methyl Arginine and DNA Content.
Z-138 cells were seeded in assay medium at a concentration of 50,000 cells per mL to a 384-well cell culture plate with 50 μL per well. Compound (100 nL) from 384 well source plates was added directly to 384 well cell plate. Plates were incubated at 37° C., 5% CO2 for 96 hours. After four days of incubation, 40 μL of cells from incubated plates were added to poly-D-lysine coated 384 well culture plates (BD Biosciences 356697). Plates were incubated at room temperature for 30 minutes then incubated at 37° C., 5% CO2 for 5 hours. After the incubation, 40 μL per well of 8% paraformaldehyde in PBS (16% paraformaldahyde was diluted to 8% in PBS) was added to each plate and incubated for 30 minutes. Plates were transferred to a Biotek 405 plate washer and washed 5 times with 100 μL per well of wash buffer (1×PBS with 0.1% Triton X-100 (v/v)). Next 30 μL per well of Odyssey blocking buffer were added to each plate and incubated 1 hour at room temperature. Blocking buffer was removed and 20 μL per well of primary antibody was added (symmetric di-methyl arginine diluted 1:100 in Odyssey buffer with 0.1% Tween 20 (v/v)) and plates were incubated overnight (16 hours) at 4° C. Plates were washed 5 times with 100 μL per well of wash buffer. Next 20 μL per well of secondary antibody was added (1:200 800CW goat anti-rabbit IgG (H+L) antibody, 1:1000 DRAQS (Biostatus limited) in Odyssey buffer with 0.1% Tween 20 (v/v)) and incubated for 1 hour at room temperature. The plates were washed 5 times with 100 μL per well wash buffer then 1 time with 100 μL per well of water. Plates were allowed to dry at room temperature then imaged on the Licor Odyssey machine which measures integrated intensity at 700 nm and 800 nm wavelengths. Both 700 and 800 channels were scanned.
First, the ratio for each well was determined by:
Each plate included fourteen control wells of DMSO only treatment (minimum inhibition) as well as fourteen control wells for maximum inhibition treated with 3 μM of a reference compound (Background wells). The average of the ratio values for each control type was calculated and used to determine the percent inhibition for each test well in the plate. Reference compound was serially diluted three-fold in DMSO for a total of nine test concentrations, beginning at 3 μM. Percent inhibition was determined and IC50 curves were generated using triplicate wells per concentration of compound.

PRMT5/MEP50 = target: T1, PRMT5/MEP50 (Homo sapiens, UniProt O14744); test: PRMT5 Biochemical Assay (PRMT5/MEP50 enzyme assay on peptide substrate, 3H-SAM Flashplate); settings: read-out: Biochemical IC50
T1 construct: Expressed full-length human Flag-PRMT5/6His-MeP50 protein complex was purified; made in house; host or cells: Spodoptera frugiperda (SF9) insect cells, baculovirus (pDEST8)

Z-138 cells [2] = test: Z-138 Proliferation Assay (Cell Titer Glo, 5 days); type: cell-based; settings: Homo sapiens, Table D-2
From the text: Z-138 Proliferation Assay
Z-138 suspension cells were purchased from ATCC (American Type Culture Collection, Manassas, Va.). RPMI/Glutamax medium, penicillin-streptomycin, heat inactivated fetal bovine serum were purchased from Life Technologies, Grand Island, N.Y., USA. V-bottom polypropylene 384-well plates were purchased from Greiner Bio-One, Monroe, N.C., USA. Cell culture 384-well white opaque plates were purchased from Perkin Elmer, Waltham, Mass., USA. Cell-Titer Gb® was purchased from Promega Corporation, Madison, Wis., USA. SpectraMax M5 plate reader was purchased from Molecular Devices LLC, Sunnyvale, Calif., USA.
Z-138 suspension cells were maintained in growth medium (RPMI 1640 supplemented with 10% v/v heat inactivated fetal bovine serum and cultured at 37° C. under 5% CO2. Under assay conditions, cells were incubated in assay medium (RPMI 1640 supplemented with 10% v/v heat inactivated fetal bovine serum and 100 units/mL penicillin-streptomycin) at 37° C. under 5% CO2.
For the assessment of the effect of compounds on the proliferation of the Z-138 cell line, exponentially growing cells were plated in 384-well white opaque plates at a density of 10,000 cells/ml in a final volume of 50 μl of assay medium. A compound source plate was prepared by performing triplicate nine-point 3-fold serial dilutions in DMSO, beginning at 10 mM (final top concentration of compound in the assay was 20 μM and the DMSO was 0.2%). A 100 nL aliquot from the compound stock plate was added to its respective well in the cell plate. […] After addition of compounds, assay plates were incubated for 5 days at 37° C., 5% CO2, relative humidity >90%.
Cell viability was measured by quantitation of ATP present in the cell cultures, adding 35 μl of Cell Titer Glo® reagent to the cell plates. Luminescence was read in the SpectraMax M5 microplate reader. The concentration of compound inhibiting cell viability by 50% was determined using a 4-parametric fit of the normalized dose response curves.

[3] = Table A-2, 96 hours, symmetric di-methyl arginine, read-out: ICW EC50
[4] = Table A-2, PRMT5/MEP50 4 nM, 3H-SAM 75 nM, peptide 40 nM

T1 sequence (O14744 with tags, fused parts or gaps): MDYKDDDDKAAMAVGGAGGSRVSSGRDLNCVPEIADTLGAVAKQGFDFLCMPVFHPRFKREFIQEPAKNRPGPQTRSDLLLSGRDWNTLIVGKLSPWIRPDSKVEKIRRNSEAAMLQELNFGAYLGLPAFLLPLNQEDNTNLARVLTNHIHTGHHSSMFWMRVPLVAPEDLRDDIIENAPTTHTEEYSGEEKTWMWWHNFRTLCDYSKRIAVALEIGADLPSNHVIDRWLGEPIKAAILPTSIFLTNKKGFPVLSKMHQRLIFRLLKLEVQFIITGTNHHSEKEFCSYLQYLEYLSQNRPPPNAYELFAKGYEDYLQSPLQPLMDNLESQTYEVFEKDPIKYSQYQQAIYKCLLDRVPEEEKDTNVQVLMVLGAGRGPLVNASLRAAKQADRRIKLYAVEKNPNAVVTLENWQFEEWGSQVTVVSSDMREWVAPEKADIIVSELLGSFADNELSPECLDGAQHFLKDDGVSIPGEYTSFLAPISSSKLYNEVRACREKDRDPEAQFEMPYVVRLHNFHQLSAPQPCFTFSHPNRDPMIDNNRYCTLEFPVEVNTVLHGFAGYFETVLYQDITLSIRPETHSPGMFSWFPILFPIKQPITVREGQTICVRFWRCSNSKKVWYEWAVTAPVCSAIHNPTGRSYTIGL
T1 sequence (Q9BQA1 with tags, fused parts or gaps partner limits assumed): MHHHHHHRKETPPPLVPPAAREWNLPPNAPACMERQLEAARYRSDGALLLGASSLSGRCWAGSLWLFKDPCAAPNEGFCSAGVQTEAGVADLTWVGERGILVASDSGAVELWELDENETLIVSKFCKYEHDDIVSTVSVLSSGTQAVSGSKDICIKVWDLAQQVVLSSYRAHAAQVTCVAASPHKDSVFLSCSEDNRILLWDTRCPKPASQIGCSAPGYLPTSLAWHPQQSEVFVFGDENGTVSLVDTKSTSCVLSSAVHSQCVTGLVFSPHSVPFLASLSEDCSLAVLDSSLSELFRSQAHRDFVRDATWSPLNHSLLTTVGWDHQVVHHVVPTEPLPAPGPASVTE

Row | SMILES | pEC50 (Z-138 cells [1]; [3]) | pIC50 (PRMT5/MEP50; [4]) | pEC50 (Z-138 cells [1]; Table D-2, read-out: ICW EC50) | pIC50 (PRMT5/MEP50; Table D-2) | pEC50 (Z-138 cells [2])
1 | O=C(Cc1cccc2cccnc12)NCC(O)CN1CCc2ccccc2C1 (centres unmarked) [Compound A60] | 5.00 to 6.00 | 6.00 to 7.00 |  |  | 
2 | N#CCc1cccc(-c2cccc(OCC(O)CN3CCc4ccccc4C3)c2)c1 (centres unmarked) [Compound D111] |  |  | 5.00 to 6.00 | 6.00 to 7.00 | 
3 | OC(COc1cccc(-c2ccccc2F)c1)CN1CCc2ccccc2C1 (centres unmarked) [Compound D154] |  |  | 5.00 to 6.00 | 6.00 to 7.00 | 
4 | CN(C)CCOc1ccccc1OCC(=O)NC[C@@H](O)CN1CCc2ccccc2C1 [Compound A89] | 5.00 to 6.00 | 6.00 to 7.00 |  |  | 
5 | Cn1nccc1-c1cccc(CC(=O)NCC(O)CN2CCc3ccccc3C2)c1 (centres unmarked) [Compound A54] | 6.00 to 7.00 | 6.00 to 7.00 |  |  | 
6 | OC(COCC1COc2ccccc2O1)CN1CCc2ccccc2C1 (centres unmarked) [Compound D300] |  |  |  | 6.00 to 7.00 | < 4.40
7 | Cn1ccnc1-c1ccccc1OCC(=O)NCC(O)CN1CCc2ccccc2C1 (centres unmarked) [Compound A138] | 5.00 to 6.00 | 6.00 to 7.00 |  |  | 
8 | Cc1cn(C)c2cccc(OCC(=O)NCC(O)CN3CCc4ccccc4C3)c12 (centres unmarked) [Compound A146] | 6.00 to 7.00 | > 7.00 |  |  | 
9 | OC(COC1CCCNC1)CN1CCc2ccccc2C1 (centres unmarked) [Compound D297] |  |  |  | < 4.40 | < 4.40
10 | CC(OCC(O)CN1CCc2ccccc2C1)c1cccnc1 (centres unmarked) [Compound D299] |  |  |  | 4.40 to 5.00 | < 4.40
11 | OC(COc1ccc(C2CCNCC2)cc1)CN1CCc2ccccc2C1 (centres unmarked) [Compound D25] |  |  |  | 5.00 to 6.00 | 4.40 to 5.00
12 | OC(COc1ccc(-n2cncn2)cc1)CN1CCc2ccccc2C1 (centres unmarked) [Compound D9] |  |  |  | 5.00 to 6.00 | < 4.70
13 | OC(COC1Cc2ccccc2C1)CN1CCc2ccccc2C1 (centres unmarked) [Compound D301] |  |  |  | 5.00 to 6.00 | < 4.40
14 | OC(COc1ccc2c(c1)OCO2)CN1CCc2ccccc2C1 (centres unmarked) [Compound D285] |  |  |  | 5.00 to 6.00 | < 4.70
15 | CCC1c2ccccc2CCN1CC(O)COc1cccc(-c2ccc3ncn(C)c3c2)c1 (centres unmarked) [Compound D179] |  |  |  | 6.00 to 7.00 | < 4.70
16 | CN1CCCCC1COCC(O)CN1CCc2ccccc2C1 (centres unmarked) [Compound D289] |  |  |  | < 4.40 | < 4.40
17 | O=C(Nc1cccc(OCC(O)CN2CCc3ccccc3C2)c1)c1cccnn1 (centres unmarked) [Compound D164] |  |  | 5.00 to 6.00 | 5.00 to 6.00 | 
18 | CN1CCN(c2ccccc2OCC(=O)NC[C@@H](O)CN2CCc3ccccc3C2)CC1 [Compound A85] | 5.00 to 6.00 | 5.00 to 6.00 |  |  | 
19 | CC(C)(C)OC(=O)N1CCCC(OCC(O)CN2CCc3ccccc3C2)C1 (centres unmarked) [Compound D291] |  |  |  | 5.00 to 6.00 | < 4.40
20 | Cc1nn(-c2ccccc2)c(C)c1COCC(O)CN1CCc2ccccc2C1 (centres unmarked) [Compound D28] |  |  |  | 5.00 to 6.00 | < 4.40

Row | SMILES | pEC50 (Z-138 cells [1]; [3]) | pIC50 (PRMT5/MEP50; [4]) | pEC50 (Z-138 cells [1]; Table D-2, read-out: ICW EC50) | pIC50 (PRMT5/MEP50; Table D-2) | pEC50 (Z-138 cells [2])
21 | CN1CCC(OCC(O)CN2CCc3ccccc3C2)C1 (centres unmarked) [Compound D307] |  |  |  | < 4.40 | < 4.40
22 | O=C(c1ccc(Cn2ccc(-c3ccc(OCC(O)CN4CCc5ccccc5C4)cc3)n2)cc1)N1CCCC1 (centres unmarked) [Compound D34] |  |  |  | 5.00 to 6.00 | 4.40 to 5.00
23 | OC(COc1cccc(CNC2CCCC2)c1)CN1CCc2ccccc2C1 (centres unmarked) [Compound D1] |  |  |  | 6.00 to 7.00 | 4.40 to 5.00
24 | CC(C)(C)OC(=O)N1CCC(OCC(O)CN2CCc3ccccc3C2)CC1 (centres unmarked) [Compound D292] |  |  |  | 5.00 to 6.00 | < 4.40
25 | O=C(COc1ccccc1S(=O)(=O)N1CCOCC1)NCC(O)CN1CCc2ccccc2C1 (centres unmarked) [Compound A149] | 6.00 to 7.00 | > 7.00 |  |  | 
26 | OC(COC1CCOCC1)CN1CCc2ccccc2C1 (centres unmarked) [Compound D310] |  |  |  | 4.40 to 5.00 | < 4.40
27 | CC(C)(C)OC(=O)N1CC(OCC(O)CN2CCc3ccccc3C2)C1 (centres unmarked) [Compound D290] |  |  |  | 5.00 to 6.00 | < 4.40
28 | CC(C(O)COc1cccc(CNC2CCCC2)c1)N1CCc2ccccc2C1 (centres unmarked) [Compound D33] |  |  |  | 5.00 to 6.00 | < 4.40
29 | COc1cccc(COCC(O)CN2CCc3ccccc3C2)c1 (centres unmarked) [Compound D288] |  |  |  | 5.00 to 6.00 | < 4.40
30 | OC(COC1CCN(Cc2ccccc2)CC1)CN1CCc2ccccc2C1 (centres unmarked) [Compound D21] |  |  |  | 5.00 to 6.00 | < 4.40
31 | OC(COC1CCCCCC1)CN1CCc2ccccc2C1 (centres unmarked) [Compound D309] |  |  |  | 5.00 to 6.00 | < 4.40
32 | CC(C)n1nccc1-c1ccc(OCC(O)CN2CCc3ccccc3C2)cc1 (centres unmarked) [Compound D26] |  |  |  | 4.40 to 5.00 | < 4.40
33 | CC(C)n1ccc(-c2ccc(OCC(O)CN3CCc4ccccc4C3)cc2)n1 (centres unmarked) [Compound D27] |  |  |  | 5.00 to 6.00 | < 4.40
34 | OC(COCC1CCCCC1)CN1CCc2ccccc2C1 (centres unmarked) [Compound D294] |  |  |  | 5.00 to 6.00 | < 4.40
35 | OC(COCC1CCCO1)CN1CCc2ccccc2C1 (centres unmarked) [Compound D305] |  |  |  | 4.40 to 5.00 | < 4.40
36 | OC(COCC1CC1)CN1CCc2ccccc2C1 (centres unmarked) [Compound D303] |  |  |  | 5.00 to 6.00 | < 4.40
37 | OC(COCc1ccc(OCc2ccccc2)cc1)CN1CCc2ccccc2C1 (centres unmarked) [Compound D12] |  |  |  | 5.00 to 6.00 | < 4.70
38 | CCn1ccnc1COCC(O)CN1CCc2ccccc2C1 (centres unmarked) [Compound D295] |  |  |  | < 4.40 | < 4.40
39 | OC(COC1CCNC1)CN1CCc2ccccc2C1 (centres unmarked) [Compound D306] |  |  |  | < 4.40 | < 4.40
40 | OC(COCC1CCCCO1)CN1CCc2ccccc2C1 (centres unmarked) [Compound D304] |  |  |  | < 4.40 | < 4.40
